Patent US20150197492A1, “NOVEL INDENO[1,2-c]QUINOLIN-11-ONE DERIVATIVES, PREPARATION METHOD AND APPLICATION THEREOF” (National Defense Medical Center, priority 2014, published 2015)

What was measured:
Assay type in all cases: cell-based
BT-549 = assay: cells
human PC-3 cells = assay: Sulforhodamine B (SRB) assay, cytotoxicity against PC-3 cells; details: SRB assay, PC-3 cells
Summary of the method: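 PC-3 cells in 5% FBS were fixed with 10% TCA after 24 h as T0, then treated with compound for 48 h, fixed, stained with 0.4% SRB in 1% acetic acid and solubilized in 10 mmol/L Trizma base. Absorbance was read at 515 nm. GI% = 100−[(Tx−T0)/(C−T0)]×100, and IC50 is the concentration halving total protein.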

SK-MEL-28 = assay: cells
SK-OV-3 = assay: cells
SF-295 = assay: cells
KM12 = assay: cells
HT29 = assay: cells
A498 = assay: cells
SW-620 = assay: cells
M14 = assay: cells
SR = assay: cells
NCI-H23 = assay: cells
TK-10 = assay: cells; details: TK-10 (Renal Cancer), 10 μM, 48 hours
HL-60 (TB) = assay: cells
K-562 = assay: cells
OVCAR-4 = assay: cells
U251 = assay: cells; details: CNS Cancer U251
NCI-H322M = assay: cells
[1] = system: 55 to 60 cancer cell lines; details: 10 μM
PC-3 = assay: cells
LOX IMVI = assay: cells; details: Melanoma LOX IMV1
SF-268 = assay: cells
NCI-H460 = assay: cells
HCT-15 = assay: cells
IGROV1 = assay: cells
HCT-116 = assay: cells
SN12C = assay: cells
ACHN = assay: cells
OVCAR-3 = assay: cells
MOLT-4 = assay: cells
[2] = Homo sapiens, CNS Cancer SF-295
[3] = Homo sapiens, Colon Cancer SW-620
[4] = Homo sapiens, Non-Small Cell Lung Cancer NCI-H23
[5] = Homo sapiens, K562, Leukemia K-562
[6] = Homo sapiens, CNS Cancer SF-268
[7] = Homo sapiens, Colon Cancer HCT-116

O=C1c2cc(Cl)ccc2-c2c(N3CCNCC3)nc3ccccc3c21 [SJ-10, 9-Chloro-6-(piperazin-1-yl)-11H-indeno[1,2-c]quinolin-11-one]
growth percentage (BT-549; BT-549 (Breast Cancer), 10 μM, 48 hours): 58.35%
TGI (BT-549; Breast Cancer BT-549): >100 µM
GI50 (BT-549; Homo sapiens, Breast Cancer BT-549): 10.6 µM
CC50 (BT-549; Homo sapiens, Breast Cancer BT-549, read-out: LC50 (the source's name)): > 100 µM
Toxicity (%) (human PC-3 cells): 47.2%
GI % (10 μM) (human PC-3 cells; 10 μM): 100%
GI50 (SK-MEL-28; Homo sapiens, Melanoma SK-MEL-28): > 100 µM
CC50 (SK-MEL-28; Homo sapiens, Melanoma SK-MEL-28, read-out: LC50 (the source's name)): > 100 µM
TGI (SK-MEL-28; Melanoma SK-MEL-28): >100 µM
growth percentage (SK-MEL-28; SK-MEL-28 (Melanoma), 10 μM, 48 hours): -91.38%
GI50 (SK-OV-3; Homo sapiens, Ovarian Cancer SK-OV-3): 4.35 µM
CC50 (SK-OV-3; Homo sapiens, Ovarian Cancer SK-OV-3, read-out: LC50 (the source's name)): > 100 µM
TGI (SK-OV-3; Ovarian Cancer SK-OV-3): >100 µM
growth percentage (SK-OV-3; SK-OV-3 (Ovarian Cancer), 10 μM, 48 hours): 57.81%
TGI (SF-295; CNS Cancer SF-295): >100 µM
GI50 (SF-295; [2]): 7.79 µM
LC50 (concentration killing 50% of cells) (SF-295; [2]): > 100 µM
growth percentage (SF-295; SF-295 (CNS Cancer), 10 μM, 48 hours): 23.75%
TGI (KM12; Colon Cancer KM12): >100 µM
GI50 (KM12; Homo sapiens, Colon Cancer KM12): 2500 nM
CC50 (KM12; Homo sapiens, Colon Cancer KM12, read-out: LC50 (the source's name)): > 100 µM
growth percentage (KM12; KM12 (Colon Cancer), 10 μM, 48 hours): -47.09%
TGI (HT29; Colon Cancer HT29): >100 µM
growth percentage (HT29; HT29 (Colon Cancer), 10 μM, 48 hours): -80.89%
GI50 (HT29; Homo sapiens, HT-29, Colon Cancer HT29): 7.84 µM
CC50 (HT29; Homo sapiens, HT-29, Colon Cancer HT29, read-out: LC50 (the source's name)): > 100 µM
growth percentage (A498; A498 (Renal Cancer), 10 μM, 48 hours): 59.79%
GI50 (A498; Homo sapiens, Renal Cancer A498): 2630 nM
CC50 (A498; Homo sapiens, Renal Cancer A498, read-out: LC50 (the source's name)): > 100 µM
TGI (A498; Renal Cancer A498): >100 µM
TGI (SW-620; Colon Cancer SW-620): >100 µM
GI50 (SW-620; [3]): 5.14 µM
LC50 (concentration killing 50% of cells) (SW-620; [3]): > 100 µM
growth percentage (SW-620; SW-620 (Colon Cancer), 10 μM, 48 hours): -73.67%
GI50 (M14; Homo sapiens, Melanoma M14): 7.49 µM
CC50 (M14; Homo sapiens, Melanoma M14, read-out: LC50 (the source's name)): > 100 µM
growth percentage (M14; M14 (Melanoma), 10 μM, 48 hours): -56.24%
TGI (M14; Melanoma M14): >100 µM
GI50 (SR; Homo sapiens, Leukemia SR): 3.09 µM
LC50 (50% lethal concentration) (SR; Homo sapiens, Leukemia SR): > 100 µM
TGI (SR; Leukemia SR): >100 µM
growth percentage (SR; SR (Leukemia), 10 μM, 48 hours): -55.19%
GI50 (NCI-H23; [4]): 6.65 µM
LC50 (NCI-H23; [4]): > 100 µM
growth percentage (NCI-H23; NCI-H23 (Non-Small Cell Lung Cancer), 10 μM, 48 hours): 49.19%
TGI (NCI-H23; Non-Small Cell Lung Cancer NCI-H23): >100 µM
growth percentage (TK-10): 47.07%
growth percentage (HL-60 (TB); HL-60 (TB) (Leukemia), 10 μM, 48 hours): -38.36%
GI50 (HL-60 (TB); Homo sapiens, Leukemia HL-60(TB)): 36.9 µM
CC50 (HL-60 (TB); Homo sapiens, Leukemia HL-60(TB), read-out: LC50 (the source's name)): > 100 µM
TGI (HL-60 (TB); Leukemia HL-60(TB)): >100 µM
GI50 (K-562; [5]): 7.8 µM
LC50 (lethal concentration, 50% cell kill) (K-562; [5]): > 100 µM
growth percentage (K-562; K-562 (Leukemia), 10 μM, 48 hours): -65.71%
TGI (K-562; Leukemia K-562): >100 µM
GI50 (OVCAR-4; Homo sapiens, Ovarian Cancer OVCAR-4): 6.39 µM
CC50 (OVCAR-4; Homo sapiens, Ovarian Cancer OVCAR-4, read-out: LC50 (the source's name)): > 100 µM
growth percentage (OVCAR-4; OVCAR-4 (Ovarian Cancer), 10 μM, 48 hours): 35.59%
TGI (OVCAR-4; Ovarian Cancer OVCAR-4): >100 µM
TGI (U251): >100 µM
GI50 (U251; Homo sapiens, U-251): 4.82 µM
LC50 (concentration killing 50% of cells) (U251; Homo sapiens, U-251): > 100 µM
GI50 (NCI-H322M; Homo sapiens, Non-Small Cell Lung Cancer NCI-H322M): 5.62 µM
CC50 (NCI-H322M; Homo sapiens, Non-Small Cell Lung Cancer NCI-H322M, read-out: LC50 (the source's name)): > 100 µM
growth percentage (NCI-H322M; NCI-H322M (Non-Small Cell Lung Cancer), 10 μM, 48 hours): 35.89%
TGI (NCI-H322M; Non-Small Cell Lung Cancer NCI-H322M): >100 µM
inhibition effect in different cancer cell lines (summary of the NCI data, in words) ([1]; 48 hours): preferable inhibition effects in leukemia and colon cancer cells
Mean (mean growth percentage of the tested cancer cell lines) ([1]; 48 hours, all tested cell lines): −14.37%
cytotoxicity in the first stage (in words) ([1]; basis for selection for the five-dose test): potential cytotoxicity
GI50 (PC-3; Homo sapiens, Prostate Cancer PC-3): 5.93 µM
CC50 (PC-3; Homo sapiens, Prostate Cancer PC-3, read-out: LC50 (the source's name)): > 100 µM
growth percentage (PC-3; PC-3 (Prostate Cancer), 10 μM, 48 hours): -58.51%
TGI (PC-3; Prostate Cancer PC-3): >100 µM
GI50 (LOX IMVI; Homo sapiens, LOX IMVI): 4.74 µM
CC50 (LOX IMVI; Homo sapiens, LOX IMVI, read-out: LC50 (the source's name)): > 100 µM
TGI (LOX IMVI): >100 µM
TGI (SF-268; CNS Cancer SF-268): >100 µM
GI50 (SF-268; [6]): 8.71 µM
LC50 (SF-268; [6]): > 100 µM
growth percentage (SF-268; SF-268 (CNS Cancer), 10 μM, 48 hours): 34.33%
GI50 (NCI-H460; Homo sapiens, Non-Small Cell Lung Cancer NCI-460): 4.15 µM
CC50 (NCI-H460; Homo sapiens, Non-Small Cell Lung Cancer NCI-460, read-out: LC50 (the source's name)): > 100 µM
growth percentage (NCI-H460; NCI-H460 (Non-Small Cell Lung Cancer), 10 μM, 48 hours): -66.36%
TGI (NCI-H460; Non-Small Cell Lung Cancer NCI-460): >100 µM
TGI (HCT-15; Colon Cancer HCT-15): >100 µM
growth percentage (HCT-15; HCT-15 (Colon Cancer), 10 μM, 48 hours): -78.92%
GI50 (HCT-15; Homo sapiens, Colon Cancer HCT-15): 4.34 µM
CC50 (HCT-15; Homo sapiens, Colon Cancer HCT-15, read-out: LC50 (the source's name)): > 100 µM
GI50 (IGROV1; Homo sapiens, IGROV-1, Ovarian Cancer IGROV1): 5.94 µM
CC50 (IGROV1; Homo sapiens, IGROV-1, Ovarian Cancer IGROV1, read-out: LC50 (the source's name)): > 100 µM
growth percentage (IGROV1; IGROV1 (Ovarian Cancer), 10 μM, 48 hours): 3.23%
TGI (IGROV1; Ovarian Cancer IGROV1): >100 µM
TGI (HCT-116; Colon Cancer HCT-116): >100 µM
growth percentage (HCT-116; HCT-116 (Colon Cancer), 10 μM, 48 hours): -83.19%
GI50 (HCT-116; [7]): 5.42 µM
LC50 (50% lethal concentration) (HCT-116; [7]): > 100 µM
GI50 (SN12C; Homo sapiens, Renal Cancer SN12C): 5.42 µM
CC50 (SN12C; Homo sapiens, Renal Cancer SN12C, read-out: LC50 (the source's name)): > 100 µM
TGI (SN12C; Renal Cancer SN12C): >100 µM
growth percentage (SN12C; SN12C (Renal Cancer), 10 μM, 48 hours): 15.89%
growth percentage (ACHN; ACHN (Renal Cancer), 10 μM, 48 hours): -83.29%
GI50 (ACHN; Homo sapiens, Renal Cancer ACHN): 3.14 µM
CC50 (ACHN; Homo sapiens, Renal Cancer ACHN, read-out: LC50 (the source's name)): > 100 µM
TGI (ACHN; Renal Cancer ACHN): >100 µM
GI50 (OVCAR-3; Homo sapiens, Ovarian Cancer OVCAR-3): 12.8 µM
CC50 (OVCAR-3; Homo sapiens, Ovarian Cancer OVCAR-3, read-out: LC50 (the source's name)): > 100 µM
growth percentage (OVCAR-3; OVCAR-3 (Ovarian Cancer), 10 μM, 48 hours): 22.86%
TGI (OVCAR-3; Ovarian Cancer OVCAR-3): >100 µM
GI50 (MOLT-4; Homo sapiens, Leukemia MOLT-4): 4.41 µM
LC50 (concentration killing 50% of cells) (MOLT-4; Homo sapiens, Leukemia MOLT-4): > 100 µM
TGI (MOLT-4; Leukemia MOLT-4): >100 µM
growth percentage (MOLT-4; MOLT-4 (Leukemia), 10 μM, 48 hours): -43.22%
